Results on one compound are retold here after US20200223839A1, “FLUORO-CONTAINING COMPOUNDS, USE AND PREPARATION THEREOF” (JIANGSU YINGKEBEITA YIYAOKEJI CO. LTD, priority 2017, published 2020).

Data set [1] deals with HCC1937. The data set can be described thus: Cell culture and cytotoxicity assay (CTG), HCC1937. The conditions noted are these: Homo sapiens, HCC1937, exposure 72 hours. Type of data set: cell-based. The procedure:
(§1) The assayed compounds each was dissolved in DMSO with a final concentration of 10 mM or 40 mM and stored at −20° C. Tumor cell lines A549 (7,000 cells/well), BT474 (12,000 cells/well), MDA-MB-468 (12,000 cells/well), and HCC1937 (6,000 cells/well) were seeded on 96-well plates. And the cells were pre-incubated at 37° C./5% CO2 for 24 hours. The cells were exposed to different concentrations of the assay compounds (from 400 μM to 782 nM, from 200 μM to 391 nM, from 100 μM to 196 nM, and from 50 μM to 98 nM) for the following time:
(§2) After incubation, 100 μL from each well was discarded and CTG base (Proega, G7571, 50 μL) was added and the mixture was agitated for 2 minutes. The mixtures were stored in a dark room for 10 minutes and the viability was analyzed with Multiskan microplate reader.

Data set [2] deals with MDA-MB-453. In words: Cytotoxicity assay by the CTG method, MDA-MB-453. Type of data set: cell-based. The conditions noted are these: Homo sapiens, MDA-MB-453, Breast cancer, 72 h. The method, then: (§3) The corresponding cells were harvested from flask into cell culture medium and the cell number were counted. The cells were diluted with culture medium to the desired density and 40 μL of cell suspension was added into each well of 384-well cell culture plate as designated. The plates were covered with lid and placed in room temperature for 30 minutes without shaking and then were transferred plates into 37° C. 5% CO2 incubator overnight for cell attachment.
(§4) Compound preparation and treatment: Test compounds were received or dissolved at 30 mM stock solution and control compound Staurosporine was stored as 10 mM and 1 mM concentration. 45 uL of stock solution was transferred to a 384 pp-plate. 3 fold, 10-point dilution were performed via transferring 15 uL compound into 30 μL DMSO by using TECAN (EVO200) liquid handler. The plates were spun at room temperature at 1,000 RPM for 1 minute and shaken at a plate shaker for 2 minutes. […]
(§5) The plate from incubators were placed and equilibrated at room temperature for 15 minutes. […] 40 μL of CellTiter-Glo reagent were transferred into each well to be detected (at 1:1 to culture medium). Then the plates were placed at room temperature for 30 min followed by reading on EnSpire.
(§6) The inhibition activity was calculated following the formula below: […]
(§7) The IC50 were calculated by fitting the Curve using Xlfit (v5.3.1.3): […]

Data set [3] relates to HCT116. In words: Cytotoxicity assay by the CTG method, HCT116. The following applies: Homo sapiens, HCT-116, HCT116, Colon cancer, 72 h. Type of data set: cell-based. The method, then: as §3, §4, §5, §6, §7
Data set [4] concerns SK-MEL-3. The data set can be described thus: Cytotoxicity assay by the CTG method, SK-MEL-3. In kind it is cell-based. The conditions noted are these: Homo sapiens, SK-MEL3, SK-MEL-3, Melanoma, 72 h. The method, then: as §3, §4, §5, §6, §7
Data set [5] deals with NCI-H446. In words: Cytotoxicity assay by the CTG method, NCI-H446. The following applies: Homo sapiens, NCI-H446, Lung cancer, 72 h. In kind it is cell-based. The procedure: as §3, §4, §5, §6, §7
In data set [6] the test system is MDA-MB-453 cells (human breast cancer). The data set can be described thus: In vivo mouse model, MDA-MB-453, tumor sizes. The conditions noted are these: MDA-MB-453 mouse model, similar dosage (for example, 100 mg/Kg), FIG. 6. From the text: (§8) MDA-MB-453 cells (human breast cancer) were also studied in a mouse model. […] FIG. 7.
The subject of data set [7] is MDA-MB-468 cell line. In words: Anti-tumor activity against MDA-MB-468 cell line (CCK-8 test). The conditions noted are these: Homo sapiens, MDA-MB-468, 72 h. Type of data set: cell-based. The procedure: A cryo tube was removed from liquid nitrogen. As quickly as possible, the cells were thawed by placing the vial in a 37° C. water bath and gently shaking the vials. The cells were transferred to medium tube, which containing 5 mL medium, and were centrifuged at 1000 rpm for 6 min. The supernatant containing dead cells and cell debris was discarded. 1 mL of pre-warmed medium with 10% FBS was add and the solution was re-suspended. The plate was placed in 37° C. and 5% CO2 incubator. The medium was changed next day.
Cells in logarithmic growth stage were taken and culture medium was discarded. 1 mL 0.25% trypsin solution was added for twice. The trypsin solution was removed and the 0.5 ml 0.25% trypsin solution was added to the cell flask. The plate was placed in 37° C. and 5% CO2 incubator for a few minutes until the cells recovered. 1 mL medium was added to stop digestion. The liquid was transferred by pipette for experiment.
the cells were suspended and the medium was discarded. 1 mL 0.25% trypsin solution was added for twice and the trypsin digestion was centrifuged. The cells were suspended with the culture medium, count and adjusted to the appropriate concentration.
The cell suspension was added to the 96-well plate with a volume of 100 uL per well, as shown in Tab. 5, and was placed in 37° C., 5% CO2 incubator overnight.
Preparation of Compounds Working Solution.
The test compounds were dissolved in DMSO at 10 mM with sterile filter (0.22 um, nelon, JET). After filtering, the solution were continuously diluted by three times with DMSO. A total of six concentration were prepared, as shown below.
6 uL compound solution was added to 594 uL medium and the solution was added to 96-well plate as shown and cultured for 72 h in CO2 incubator.
A CCK-8 solution was prepared according to the instructions and the 96-well plate was taken out and the original medium discarded. 100 uL cck-8 solution was added to each well in the 96-well plate. Photoabsorption data were read by TECAN enzyme marker after a period of time.
IC (%)=[Ac-As]/[Ac-Ab]*100% • As: Experimental well (containing culture medium, cell, CCK-8 and compound); • Ac: Controlled well (containing culture medium, cell and CCK-8); • Ab: Blank well (Only containing medium and CCK-8).
For orientation: Formazan colour is commonly taken as a measure of viable cells.

Data set [8] has as its system MOLT4. The data set can be described thus: Cytotoxicity assay by the CTG method, MOLT4. The conditions noted are these: Homo sapiens, MOLT-4, MOLT4, Leukemia, 72 h. Type of data set: cell-based. The procedure:
as §3, §4, §5, §6, §7

Data set [9] has as its system MDA-MB-468. In words: Cell culture and cytotoxicity assay (CTG), MDA-MB-468. In kind it is cell-based, human. The method, then:
as §1, §2

Data set [10] deals with A2058. In words: Cytotoxicity assay by the CTG method, A2058. The following applies: Homo sapiens, A2058, Melanoma, 72 h. Type of data set: cell-based. The procedure:
as §3, §4, §5, §6, §7

The test system of data set [11] is Hep3B. The data set can be described thus: Cytotoxicity assay by the CTG method, Hep3B. Type of data set: cell-based. The conditions noted are these: Homo sapiens, Liver cancer, 72 h. The method, then: as §3, §4, §5, §6, §7
A short description of data set [12]: In vivo mouse model, MDA-MB-453, mice weights. The following applies: MDA-MB-453 mouse model.
Text: as §8

By IC50 is commonly meant the concentration needed to halve the response being measured. A higher IC50 goes with weaker potency.

As to `Cc1ccc(S(=O)(=O)Nc2nc3ccccc3nc2Nc2ccc3nsnc3c2)cc1F` [Compound 4f, N-[3-(benzo[1,2,5]thiadiazol-5-ylamino)-quinoxalin-2-yl]-3-fluoro-4-methyl-benzenesulfonamide], the IC50 was found to be 37900 nM in [1]; 1.5 µM in [2]; 5.44 µM in [3]; 9.06 µM in data set [4]; 3.92 µM in [5]; 0.912 µM in [7]. In addition, the IC50 in data set [8] is 4.72 µM; in data set [9] (Homo sapiens, MDA-MB-468, exposure 72 hours, CTG), 781 to 1560 nM; in [10], 7.7 µM; in [11], 3.97 µM. In addition, in data set [6], the “anticancer activities (tumor sizes) compared with Ref. 2” value is “better anticancer activities than Ref. 2”. For the same compound, in [9] (MDA-MB-468 cytotoxicity, versus Ref. 1, Ref. 3, XL147-A, BEZ235), the “anticancer activity compared with known compounds (FIG. 1)” value is “much better anticancer activity than any of the known compounds”. Moreover, the weight changes entry in data set [12] (FIG. 7, 50 mg/Kg) is “no difference in weight changes”; in [12] (FIG. 7, 100 mg/Kg) it was “no difference in weight changes”.
